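How tested: cells in 96-well plates exposed to compound for 48 hours at five concentrations. GI50: concentration for 50% inhibition of growth. Definition used: TGI = concentration required for complete inhibition of growth.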
How the values were obtained:
Test in all cases: DTP human tumour cell line panel, 48 h
[1] = system: NCI/ADR-RES ovarian
[2] = system: 786-0 renal
[3] = system: SK-MEL-28 melanoma
[4] = system: EKVX NSCLC
[5] = system: NCI-H23 lung
[6] = system: SNB-75 CNS
[7] = system: OVCAR-5 ovarian
[8] = system: U251 CNS
[9] = system: A498 renal
[10] = system: SNB-19 CNS
[11] = system: MALME-3M melanoma
[12] = system: BT-549 breast
[13] = system: RXF 393 renal
[14] = system: HOP-92 NSCLC
[15] = system: MDA-MB-435
[16] = system: HCC-2998 colon
[17] = system: OVCAR-8 ovarian
[18] = system: NCI-H522 lung
[19] = system: HCT-15 colon
[20] = system: K-562 leukemia
[21] = system: UACC-257 melanoma
[22] = system: SK-MEL-2 melanoma
[23] = system: HOP-62 NSCLC
[24] = system: OVCAR-3 ovarian
[25] = system: SR leukemia
[26] = system: A549 NSCLC
[27] = system: SN12C renal
[28] = system: HT29 colon
[29] = system: SK-OV-3 ovarian
[30] = system: NCI-H460 lung
[31] = system: HS 578T breast
[32] = system: MCF7 breast
[33] = system: SW-620 colon
[34] = system: RPMI-8226 leukemia
[35] = system: T-47D breast
[36] = system: UO-31 renal
[37] = system: MOLT-4 leukemia
[38] = system: HCT-116 colon
[39] = system: IGROV1 ovarian
[40] = system: M14 melanoma
[41] = system: KM12 colon
[42] = system: LOX IMVI melanoma
[43] = system: SK-MEL-5 melanoma
[44] = system: SF-295 CNS
[45] = system: OVCAR-4 ovarian
[46] = system: PC-3 prostate
[47] = system: SF-539 CNS
[48] = system: ACHN renal
[49] = system: MDA-MB-231 breast
[50] = system: NCI-H226 lung
[51] = system: CCRF-CEM leukemia
[52] = system: DU-145 prostate
[53] = system: UACC-62 melanoma
[54] = system: CAKI-1 renal
[55] = system: SF-268 CNS
[56] = system: COLO 205 colon
[57] = system: HL-60(TB) leukemia
[58] = system: TK-10 renal

CC1(C)CCC(S(=O)(=O)c2ccc3c(c2)/C(=N\O)c2cc(S(=O)(=O)N4CCN(c5ccc(F)cc5O)CC4)ccc2-3)CC1
GI50 [1]: 443 nM
TGI [1]: 2630 nM
GI50 [2]: 186 nM
TGI [2]: 415 nM
GI50 [3]: 129 nM
TGI [3]: 293 nM
GI50 [4]: 152 nM
TGI [4]: 515 nM
GI50 [5]: 230 nM
TGI [5]: 583 nM
GI50 [6]: 162 nM
TGI [6]: 324 nM
GI50 [7]: 164 nM
TGI [7]: 367 nM
GI50 [8]: 105 nM
TGI [8]: 223 nM
GI50 [9]: 840 nM
TGI [9]: 2630 nM
GI50 [10]: 211 nM
TGI [10]: 486 nM
GI50 [11]: 141 nM
TGI [11]: 295 nM
GI50 [12]: 133 nM
TGI [12]: 286 nM
GI50 [13]: 157 nM
TGI [13]: 314 nM
GI50 [14]: 219 nM
TGI [14]: 504 nM
GI50 [15]: 107 nM
TGI [15]: 251 nM
GI50 [16]: 104 nM
TGI [16]: 262 nM
GI50 [17]: 86.9 nM
TGI [17]: 402 nM
GI50 [18]: 147 nM
TGI [18]: 290 nM
GI50 [19]: 153 nM
TGI [19]: 445 nM
GI50 [20]: 50.8 nM
TGI [20]: 188 nM
GI50 [21]: 165 nM
TGI [21]: 491 nM
GI50 [22]: 73 nM
TGI [22]: 204 nM
GI50 [23]: 101 nM
TGI [23]: 237 nM
GI50 [24]: 117 nM
TGI [24]: 285 nM
GI50 [25]: 29.3 nM
TGI [25]: 80.2 nM
GI50 [26]: 68 nM
TGI [26]: 218 nM
GI50 [27]: 683 nM
GI50 [28]: 44 nM
TGI [28]: 182 nM
GI50 [29]: 109 nM
TGI [29]: 240 nM
GI50 [30]: 66.1 nM
TGI [30]: 223 nM
GI50 [31]: 163 nM
TGI [31]: 448 nM
GI50 [32]: 159 nM
TGI [32]: 453 nM
GI50 [33]: 46.7 nM
TGI [33]: 168 nM
GI50 [34]: 126 nM
TGI [34]: 1150 nM
GI50 [35]: 104 nM
TGI [35]: 234 nM
GI50 [36]: 188 nM
TGI [36]: 460 nM
GI50 [37]: 76.2 nM
TGI [37]: 242 nM
GI50 [38]: 33.2 nM
TGI [38]: 119 nM
GI50 [39]: 149 nM
TGI [39]: 346 nM
GI50 [40]: 35.2 nM
TGI [40]: 144 nM
GI50 [41]: 47.9 nM
TGI [41]: 220 nM
GI50 [42]: 21.3 nM
TGI [42]: 50.4 nM
GI50 [43]: 179 nM
TGI [43]: 326 nM
GI50 [44]: 176 nM
TGI [44]: 394 nM
GI50 [45]: 63.5 nM
TGI [45]: 263 nM
GI50 [46]: 108 nM
TGI [46]: 314 nM
GI50 [47]: 127 nM
TGI [47]: 270 nM
GI50 [48]: 282 nM
TGI [48]: 1340 nM
GI50 [49]: 72.1 nM
TGI [49]: 289 nM
GI50 [50]: 206 nM
TGI [50]: 512 nM
GI50 [51]: 93 nM
TGI [51]: 370 nM
GI50 [52]: 51.7 nM
TGI [52]: 284 nM
GI50 [53]: 71.7 nM
TGI [53]: 221 nM
GI50 [54]: 157 nM
TGI [54]: 351 nM
GI50 [55]: 109 nM
TGI [55]: 286 nM
GI50 [56]: 54.8 nM
TGI [56]: 183 nM
GI50 [57]: 98.6 nM
TGI [57]: 288 nM

COc1ccc(Nc2nc3cc(C(F)(F)F)ccc3nc2C(=O)O)cc1OC
TGI [1]: > 100000 nM
TGI [2]: > 100000 nM
TGI [3]: > 100000 nM
TGI [4]: > 100000 nM
TGI [5]: 78900 nM
TGI [6]: > 100000 nM
TGI [7]: > 100000 nM
TGI [8]: > 100000 nM
TGI [9]: > 100000 nM
TGI [10]: > 100000 nM
TGI [11]: > 100000 nM
TGI [12]: > 100000 nM
TGI [13]: 60200 nM
TGI [14]: 74900 nM
TGI [15]: > 100000 nM
TGI [16]: > 100000 nM
TGI [17]: > 100000 nM
TGI [18]: > 100000 nM
TGI [19]: > 100000 nM
TGI [20]: > 100000 nM
TGI [21]: > 100000 nM
TGI [22]: 33200 nM
TGI [23]: > 100000 nM
TGI [24]: 93300 nM
TGI [25]: 77000 nM
TGI [26]: > 100000 nM
TGI [27]: 64200 nM
TGI [28]: > 100000 nM
TGI [30]: > 100000 nM
TGI [31]: > 100000 nM
TGI [32]: 95300 nM
TGI [33]: > 100000 nM
TGI [34]: 92000 nM
TGI [35]: > 100000 nM
TGI [36]: > 100000 nM
TGI [58]: > 100000 nM
TGI [37]: 69500 nM
TGI [38]: 95700 nM
TGI [39]: > 100000 nM
TGI [40]: > 100000 nM
TGI [41]: 88400 nM
TGI [42]: > 100000 nM
TGI [43]: 47900 nM
TGI [44]: 45500 nM
TGI [45]: > 100000 nM
TGI [46]: > 100000 nM
TGI [47]: 62300 nM
TGI [48]: > 100000 nM
TGI [49]: 65600 nM
TGI [50]: 55600 nM
TGI [51]: 67500 nM
TGI [52]: > 100000 nM
TGI [53]: 53600 nM
TGI [54]: 56300 nM
TGI [55]: > 100000 nM
TGI [56]: 69300 nM
TGI [57]: 72200 nM

Reference: PubChem BioAssay (NCI)
